Columns and labels:
[1] = target: T1, ATP-dependent translocase ABCB1 (Homo sapiens, UniProt P08183); experiment: TP_TRANSPORTER: uptake in membrane vesicles prepared from K562/ADM cells; assay type: functional, cell membranes, Membrane vesicle; conditions: k562/adr
[2] = target: T1, ATP-dependent translocase ABCB1; experiment: TP_TRANSPORTER: uptake in membrane vesicles prepared from human MDR1 transfected KB3-1 cells; assay type: functional, cell membranes, Membrane vesicle; conditions: kb 3-1

T1 sequence (P08183 whole entry): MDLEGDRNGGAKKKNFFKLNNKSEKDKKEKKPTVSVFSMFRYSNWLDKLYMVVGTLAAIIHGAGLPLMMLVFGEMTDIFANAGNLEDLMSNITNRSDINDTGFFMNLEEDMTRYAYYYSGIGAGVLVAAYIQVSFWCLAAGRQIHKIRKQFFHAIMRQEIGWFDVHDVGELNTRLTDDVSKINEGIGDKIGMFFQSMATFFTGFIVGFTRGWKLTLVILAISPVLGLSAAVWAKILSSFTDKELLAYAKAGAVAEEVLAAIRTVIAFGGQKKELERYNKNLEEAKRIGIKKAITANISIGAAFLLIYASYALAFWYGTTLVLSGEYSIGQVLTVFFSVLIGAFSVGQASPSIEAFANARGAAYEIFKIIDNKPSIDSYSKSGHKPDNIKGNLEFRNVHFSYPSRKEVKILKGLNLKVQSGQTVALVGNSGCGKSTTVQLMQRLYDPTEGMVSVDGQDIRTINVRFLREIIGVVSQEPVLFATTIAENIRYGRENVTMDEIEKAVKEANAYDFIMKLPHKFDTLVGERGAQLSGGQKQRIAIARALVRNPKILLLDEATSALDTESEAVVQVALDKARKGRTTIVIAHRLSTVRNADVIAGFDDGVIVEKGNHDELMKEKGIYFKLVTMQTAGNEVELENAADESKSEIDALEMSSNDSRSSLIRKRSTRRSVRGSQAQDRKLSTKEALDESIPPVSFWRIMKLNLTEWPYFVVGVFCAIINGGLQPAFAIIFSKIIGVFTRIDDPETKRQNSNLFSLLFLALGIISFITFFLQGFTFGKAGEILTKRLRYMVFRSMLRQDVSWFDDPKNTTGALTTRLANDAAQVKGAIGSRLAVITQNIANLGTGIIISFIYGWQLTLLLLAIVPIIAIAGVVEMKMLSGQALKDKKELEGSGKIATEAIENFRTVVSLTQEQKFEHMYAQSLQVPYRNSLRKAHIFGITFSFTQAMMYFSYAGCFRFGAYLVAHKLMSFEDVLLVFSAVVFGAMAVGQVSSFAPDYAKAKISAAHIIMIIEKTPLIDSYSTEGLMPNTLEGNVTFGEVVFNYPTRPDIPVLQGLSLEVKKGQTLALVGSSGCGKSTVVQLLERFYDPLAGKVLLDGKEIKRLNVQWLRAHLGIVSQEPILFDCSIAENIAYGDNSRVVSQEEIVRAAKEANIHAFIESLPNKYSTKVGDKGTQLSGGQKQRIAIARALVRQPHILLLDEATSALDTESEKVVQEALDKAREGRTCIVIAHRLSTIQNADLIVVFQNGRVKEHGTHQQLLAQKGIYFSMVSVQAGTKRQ

SMILES | Activity [1] | Activity [2]
C[C@H](N)C(=O)NCC(=O)N[C@H]1CSSC[C@@H](C(=O)O)NC(=O)[C@H](CO)NC(=O)[C@H]([C@@H](C)O)NC(=O)[C@H](Cc2ccccc2)NC(=O)[C@H]([C@@H](C)O)NC(=O)[C@H](CCCCN)NC(=O)[C@H](Cc2c[nH]c3ccccc23)NC(=O)[C@H](Cc2ccccc2)NC(=O)[C@H](Cc2ccccc2)NC(=O)[C@H](CC(N)=O)NC(=O)[C@H](CCCCN)NC1=O [SOMATOSTATIN] | substrate [+] | substrate [+]
CSCC[C@H](NC(=O)[C@H](CC(C)C)NC(=O)CNC(=O)[C@H](Cc1ccccc1)NC(=O)[C@H](Cc1ccccc1)NC(=O)[C@H](CCC(N)=O)NC(=O)[C@H](CCC(N)=O)NC(=O)[C@@H]1CCCN1C(=O)[C@H](CCCCN)NC(=O)[C@@H]1CCCN1C(=O)[C@@H](N)CCCN=C(N)N)C(N)=O [SUBSTANCE P] | substrate [+] | substrate [+]
